Data on 19 compounds can be found in patent EP4692072A1, “PHOTOCHROMIC COMPOUND, PROPARGYL ALCOHOL COMPOUND, CURABLE COMPOSITION, OPTICAL ARTICLE, LENS, AND SPECTACLES” (TOKUYAMA CORPORATION, priority 2023, dated 2024).

The data set can be described thus: Photochromic properties of photochromic laminate (plastic lens) prepared by coating method. The conditions noted are these: 40 µm photochromic layer on thiourethane lens, 0.25 mmol compound per 100 g monomers, after color development. Type of data set: physicochemical. From the text:
First, the photochromic compound obtained in Example 1, a photoinitiator, and a polymerizable compound were mixed to obtain a curable composition.
Polyethylene glycol dimethacrylate (average molecular weight: 736): 42 parts by mass • Polyethylene glycol dimethacrylate (average molecular weight: 536): 12 parts by mass • Trimethylolpropane trimethacrylate: 38 parts by mass γ-methacryloyloxypropyl trimethoxysilane: 2 parts by mass Glycidyl methacrylate: 1 part by mass
Note that the photochromic compound was added to the curable composition so that the amount of the photochromic compound was 0.25 mmol based on 100 g of the total amount of the radical-polymerizable monomers.
Phenylbis(2,4,6-trimethylbenzoyl)phosphine oxide (photoinitiator: Omnirad 819): 0.3 parts by mass Ethylene bis(oxyethylene) bis[3-(5-tert-butyl-4-hydroxy-m-tolyl)propionate] (stabilizer, Irganox 245): 1 part by mass Bis(1,2,2,6,6-pentamethyl-4-piperidyl) sebacate: 3 parts by mass Leveling agent (L7001) manufactured by Dow Corning Toray Co.,Ltd.: 0.1 part by mass
First, a thiourethane-based plastic lens having a central thickness of 2 mm and a refractive index of 1.60 was prepared as the optical substrate. Note that this thiourethane-based plastic lens was pre-treated by alkaline etching with a 10% sodium hydroxide aqueous solution at 50°C for 5 minutes, followed by sufficient washing with distilled water.
A surface of the above-described plastic lens was coated with a moisture-curable primer (product name: TR-SC-P, manufactured by Tokuyama Corporation) at a rotation frequency of 70 rpm for 15 seconds, followed by 1000 rpm for 10 seconds, using a spin coater (1H-DX2, manufactured by MIKASA CO., LTD), Subsequently, about 2 g of the photochromic curable composition obtained above was spin-coated at a rotation frequency of 60 rpm for 40 seconds, followed by 600 rpm for 10 to 20 seconds, to form a photochromic coating layer with a film thickness of 40 µm.
The lens with the surface coated with the photochromic curable composition (photochromic coating layer) was irradiated with light using a metal halide lamp with an output power of 200 mW/cm^2 in a nitrogen gas atmosphere for 90 seconds to cure the coating film. Subsequently, the lens was further heated at 110°C for 1 hour to prepare a photochromic laminate having a photochromic layer.
In the same manner as in Example 26, photochromic laminates were prepared using the photochromic compounds obtained in Examples 2 to 25.
• [1] Maximum Absorption Wavelength (λmax): The maximum absorption wavelength after color development, measured using a spectrophotometer (instantaneous multichannel photodetector MCPD3000) manufactured by Otsuka Electronics Co., Ltd. was used as an indicator for the color tone during the color development. • [2] 23°C Color Optical Density (A23): A difference between an absorbancy measured after light irradiation at 23°C for 300 seconds {ε(300)} and an absorbancy without light irradiation ε(0) at the maximum absorption wavelength was used as an indicator for the color optical density. […] 23°C color fading half-life [τ1/2 (sec.)]: A time required for the absorbancy of the sample at the maximum absorption wavelength to decrease to 1/2 of {ε(300)-ε(0)} when the light irradiation was terminated after the light irradiation at 23°C for 300 seconds, was used as an indicator for the color fading speed. The shorter this time, the higher the color fading speed. • [4] Residual rate (A120/A0×100): The obtained photochromic plastic lens was subjected to accelerated deterioration using a xenon weather meter X25 manufactured by Suga Test Instruments Co., Ltd. for 120 hours. Subsequently, the color optical density was evaluated before and after the test, then a color optical density before the test (A0) and a color optical density after the test (A120) were measured, and a ratio (A120/A0) was defined as a residual rate. The residual rate was used as an indicator for a color developing durability. […]

Compound `CCCC1(CCC)c2cc(OC)ccc2-c2c1c1c(c3cc(OC)ccc23)OC(c2ccc(OC)cc2)(c2ccc(N(C)c3ccccc3)cc2)C=C1` (centres unmarked) [Example 3] returned a Maximum absorption wavelength of 470 nm. Further, for the setting “listed as Formula (46)”, the Maximum absorption wavelength worked out at 612 nm.

In the case of `CCCC1(CCC)c2ccccc2-c2c1c1c(c3cc(OC)c(-c4ccc(OC)cc4OC)cc23)OC(c2ccc(N(C)c3ccccc3)cc2)(c2ccc(OC)c(F)c2)C=C1` (centres unmarked) [Example 7], the Maximum absorption wavelength was 496 nm. The compound further showed a Maximum absorption wavelength (listed as Formula (55)) of 603 nm.

As for `COc1ccc(C2(c3ccc(N(C)c4ccccc4)cc3)C=Cc3c4c(c5cc(-c6ccc(N7CCOCC7)cc6)c(OC)cc5c3O2)-c2ccccc2C4(C)C)cc1` (centres unmarked) [Example 1], the Maximum absorption wavelength is 502 nm. Further, the Maximum absorption wavelength (listed as Formula (37)) came out at 601 nm.

The compound `CCN(c1ccc(OC)cc1)c1ccc(C2(c3ccc(OC)cc3)C=Cc3c4c(c5cc(-c6ccc(N7CCOCC7)cc6)c(OC)cc5c3O2)-c2ccccc2C4(C)C)cc1` (centres unmarked) [Example 25] returned a Maximum absorption wavelength of 505 nm. The compound further came in with a Maximum absorption wavelength (listed as Formula (88)) of 605 nm.

The compound `CCCCN(c1ccccc1)c1ccc(C2(c3ccc(C)cc3)C=Cc3c4c(c5cc(N6CCOCC6)c(OC)cc5c3O2)-c2ccccc2C4(CC)CC)cc1` (centres unmarked) [Example 10] gave a Maximum absorption wavelength of 512 nm. In addition, where the note is “listed as Formula (62)”, the Maximum absorption wavelength turned out to be 598 nm.

For `CCCC1(CCC)c2ccccc2-c2c1c1c(c3cc(OC)c(-c4ccc(OC)cc4OC)cc23)OC(c2ccc(C)cc2)(c2ccc(N(C)c3ccccc3)cc2)C=C1` (centres unmarked) [Example 19], the Maximum absorption wavelength is 494 nm. The same compound had a Maximum absorption wavelength (listed as Formula (80)) of 604 nm.

In turn, `COCCC1(CCOC)c2ccccc2-c2c1c1c(c3cc(OC)c(-c4ccc(N(c5ccccc5)c5ccccc5)cc4)cc23)OC(c2ccc(Oc3ccccc3)cc2)(c2ccc(N(C)c3ccccc3)cc2)C=C1` (centres unmarked) [Example 23] returned a Maximum absorption wavelength of 506 nm. The same compound showed a Maximum absorption wavelength (listed as Formula (85)) of 609 nm.

In turn, `CCCCC1(CCCC)c2cc(-c3ccc(OC(C)C)cc3)ccc2-c2c1c1c(c3cc(OC)ccc23)OC(c2ccc(N(C)c3ccccc3)cc2)(c2ccc(OC)c(F)c2)C=C1` (centres unmarked) [Example 21] showed a Maximum absorption wavelength of 489 nm. The Maximum absorption wavelength (listed as Formula (83)) stood at 609 nm.

With `CCCC1(CCC)c2cc(OC(F)(F)F)ccc2-c2c1c1c(c3cc(OC)c(Sc4c(C)cccc4C)cc23)OC(c2ccc(N(C)c3ccccc3)cc2)(c2ccc(OC)c(OC)c2)C=C1` (centres unmarked) [Example 57], the Maximum absorption wavelength was determined as 493 nm. The compound further came in with a Maximum absorption wavelength (listed as Formula (110)) of 615 nm.

As to `CCCc1ccc(C2(c3ccc(N(C)c4ccccc4)cc3)C=Cc3c4c(c5cc(Sc6c(C)cccc6C)c(OC)cc5c3O2)-c2ccccc2C42CC(C)(C)CC(C)(C)C2)cc1` (centres unmarked) [Example 5], the Maximum absorption wavelength is listed as 509 nm. The Maximum absorption wavelength (listed as Formula (51)) was found to be 591 nm.

`COCCOCCC1(CCOCCOC)c2cc(C)ccc2-c2c1c1c(c3cc(C)ccc23)OC(c2ccc(N(C)c3ccc(F)cc3)cc2)(c2ccc(OC)c(OC)c2)C=C1` (centres unmarked) [Example 8] had a Maximum absorption wavelength of 474 nm. For the same compound, the Maximum absorption wavelength (listed as Formula (57)) was found to be 597 nm.

On to `CCC1(CC)CCC2(CC1)c1cc(OC(F)(F)F)ccc1-c1c2c2c(c3cc(OC)ccc13)OC(c1ccc(N(C)c3ccccc3)cc1)(c1ccc(OC)c(C)c1)C=C2` (centres unmarked) [Example 16], for which the Maximum absorption wavelength stood at 472 nm. The compound also had a Maximum absorption wavelength (listed as Formula (77)) of 584 nm.

Turning to `COCCN(c1ccccc1)c1ccc(C2(c3ccc4c(c3)OCCO4)C=Cc3c4c(c5cc6c(cc5c3O2)SC(C)(C)O6)-c2ccccc2C42CCC3(CCCCC3)CC2)cc1` (centres unmarked) [Example 14], the Maximum absorption wavelength stood at 492 nm. Moreover, the Maximum absorption wavelength (listed as Formula (72)) was 586 nm.

In turn, `COc1ccc(N(C)c2ccc(C3(c4ccc(CCO[Si](C)(C)CC[Si](O[Si](C)(C)C)(O[Si](C)(C)C)O[Si](C)(C)C)cc4)C=Cc4c5c(c6cc(N(C)c7ccccc7)c(OC)cc6c4O3)-c3ccc(C(F)(F)F)cc3C53CCC(C)(C)CC3)cc2)cc1` (centres unmarked) [Example 60] registered a Maximum absorption wavelength of 523 nm. The Maximum absorption wavelength (listed as Formula (121)) worked out at 582 nm.

`CCCCOCCC1(CCOCCCC)c2ccccc2-c2c1c1c(c3cc(OC)c(NC(=O)c4ccccc4)cc23)OC(c2ccc(N(C)c3ccccc3)cc2)(c2ccc(OC)c(F)c2)C=C1` (centres unmarked) [Example 53] displayed a Maximum absorption wavelength of 500 nm. For the same compound, under “listed as Formula (95)”, the Maximum absorption wavelength is listed as 605 nm.

The compound `COCCCCC1(CCCCOC)c2ccccc2-c2c1c1c(c3cc(-c4ccc(OC)cc4OC)c(OC)cc23)OC(c2ccc(N(C)c3ccccc3)cc2)(c2ccc3c(c2)CCO3)C=C1` (centres unmarked) [Example 62] displayed a Maximum absorption wavelength of 477 nm. For the setting “listed as Formula (124)”, this compound gave a Maximum absorption wavelength of 587 nm.

`COCCCCC1(CCCCOC)c2cc(Sc3c(C)cccc3C)ccc2-c2c1c1c(c3cc(OC)ccc23)OC(c2ccc(OC)cc2)(c2ccc(N(C)c3ccc(OC)cc3)cc2)C=C1` (centres unmarked) [Example 11] had a Maximum absorption wavelength of 477 nm. Where the note is “listed as Formula (65)”, this compound gave a Maximum absorption wavelength of 614 nm.

`COCCOCCOCCOCCC1(CCOCCOCCOCCOC)c2cc(C(F)(F)F)ccc2-c2c1c1c(c3cc(OC)c(OC)cc23)OC(c2ccc(OC)cc2)(c2ccc(N(C)c3ccccc3)cc2)C=C1` (centres unmarked) [Example 51]: the Maximum absorption wavelength was 482 nm. The same compound came in with a Maximum absorption wavelength (listed as Formula (89)) of 603 nm.

In turn, `CCCC1(CCC)c2ccccc2-c2c1c1c(c3cc(OC)c(-c4ccc(N(C)c5ccccc5)cc4)cc23)OC(c2ccc(C)cc2)(c2ccc(N(C)c3ccccc3)cc2)C=C1` (centres unmarked) [Example 24] yielded a Maximum absorption wavelength of 504 nm. Under “listed as Formula (86)”, this compound yielded a Maximum absorption wavelength of 599 nm.
